# Target: T1, 12-LO (Homo sapiens, UniProt P18054)
# T1 construct: endogenous in cells; host or cells: platelet impurities in human PMNL preparations
# T1 sequence (P18054 1-663): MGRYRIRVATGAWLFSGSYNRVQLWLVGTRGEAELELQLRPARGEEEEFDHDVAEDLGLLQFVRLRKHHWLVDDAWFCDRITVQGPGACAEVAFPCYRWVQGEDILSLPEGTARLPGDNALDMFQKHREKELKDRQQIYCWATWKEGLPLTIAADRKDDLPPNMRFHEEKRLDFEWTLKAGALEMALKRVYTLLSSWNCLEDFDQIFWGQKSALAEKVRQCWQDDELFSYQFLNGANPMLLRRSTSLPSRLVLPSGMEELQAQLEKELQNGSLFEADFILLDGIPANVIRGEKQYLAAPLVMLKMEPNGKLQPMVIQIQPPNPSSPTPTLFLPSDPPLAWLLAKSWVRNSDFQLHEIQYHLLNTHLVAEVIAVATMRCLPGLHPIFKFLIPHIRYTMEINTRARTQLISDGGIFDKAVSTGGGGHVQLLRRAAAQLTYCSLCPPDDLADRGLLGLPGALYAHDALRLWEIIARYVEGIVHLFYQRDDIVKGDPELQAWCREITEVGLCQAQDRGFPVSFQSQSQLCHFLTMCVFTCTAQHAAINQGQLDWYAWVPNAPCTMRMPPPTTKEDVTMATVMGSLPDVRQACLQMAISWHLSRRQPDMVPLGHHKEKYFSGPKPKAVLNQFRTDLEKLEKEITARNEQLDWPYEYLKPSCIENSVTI
# Experiment: 12-HETE formation in intact PMNL preparations, A23187 + 20 µM AA
# Format: cell-based
# Settings: 15 min preincubation, A23187 2.5 µM + 20 µM AA, n.i. = no inhibition observed
# Experimental: Buffy coats from different donors of different blood types were commercially obtained from DRK Blutspendedienst Baden-Württemberg Institute Frankfurt. Donors have given their written consent. […] Following separation, the supernatant was transferred very gently to new 50-ml tubes containing lymphocyte separation medium (LSM) and centrifuged for 10 min at 800 ×g at RT with the centrifuge brake turned off. Afterwards, the supernatant was decanted carefully to discard the platelets and monocytes. The PMNL were washed with 1× PBS before the residual erythrocytes were lysed in two cycles: the cell pellet was resuspended with 10 ml H2O and vortexed for 45 s, and lysis was stopped with 40 ml 1 × PBS. After 10-min centrifugation at 200 ×g at RT, the cycle was repeated once. The supernatant was aspirated, the cell pellet resuspended in 5 ml PBS/glucose and initially separated PMNL preparations with different blood types were finally pooled to gain a sufficient number of cells. […] The enzyme was diluted in PBS/EDTA/ATP, transferred into 5-ml glass tubes, and stored on ice. […] The reaction was stopped by placing the glass tubes on ice. The supernatants were transferred to 1.5 ml reaction tubes and stored at −80°C before LC-MS (liquid chromatography and mass spectrometry) analysis of LTB4 and HETEs as described in 2.6 at the Institute of Pharmacology, Goethe University, University Hospital, Germany. The lipid mediators LTB4, hydroxyeicosatetraenoic acids, 5(S)-HETE, 12(S)-HETE, 15(S)-HETE and 20-HETE were analyzed using liquid chromatography tandem-mass spectroscopy (LC-MS/MS). The LC-MS/MS system consisted of a 5500 QTrap mass spectrometer (Sciex, Darmstadt, Germany), operating in negative ESI mode, an Agilent 1200 HPLC system (Agilent, Waldbronn, Germany) and an HTC Pal autosampler (Chromtech, Idstein, Germany). Sample extraction of LTB4 and HETEs were performed using liquid-liquid extraction: 200 µl of the sample were gently mixed with 20 µl of methanol and 20 µl of internal standard solution and extracted twice with 600 µl ethyl acetate. […] Working solutions of all analytes were prepared in methanol containing 0.1% BHT. The calibration standards were prepared by further dilution of the working standards. […] The residues were reconstituted in 50 µl of methanol:water:BHT (50:50:10^−4, v/v/v) prior to injection into the LC-MS/MS system. Chromatographic separation was achieved using a Gemini NX C18 column (150 mm × 2 mm ID, 5 µm, Phenomenex, Aschaffenburg, Germany) with a precolumn of the same material. A linear gradient was employed at a flow rate of 0.5 ml/min and a total run time of 17.5 min. Mobile phases were A water:ammonia (100:0.05, v/v) and B acetonitrile:ammonia (100:0.05, v/v). […] All data were acquired using Analyst software v1.6.2 and quantitation was performed by MultiQuant software v3.0 (both Sciex, Darmstadt, Germany) using the internal standard method (isotope-dilution mass spectrometry). Calibration curves were calculated by linear regression with 1/x.
row,Compound,PMNL (20 µM AA) 12-HETE IC50
1,"CCC=C(CCCCCCCC(=O)O)[N+](=O)[O-] [12.9.9, 9-nitro-dodec-9-enoic acid]",n.i.
2,"CCCCC=C(CCCCCCCC(=O)O)[N+](=O)[O-] [14.9.9, 9-nitro-tetradec-9-enoic acid]",n.i.
3,"CCCCCCC=C(CCCCCCCC(=O)O)[N+](=O)[O-] [16.9.9, 9-nitro-hexadec-9-enoic acid]",n.i.
4,"CCCCCCCCCCCCCC=C(CCC(=O)O)[N+](=O)[O-] [18.4.4, 4-nitro-octadec-4-enoic acid]",n.i.
5,"CCCCCCCCCCCCC=C(CCCC(=O)O)[N+](=O)[O-] [18.5.5, 5-nitro-octadec-5-enoic acid]",n.i.
6,"CCCCCCCCCCCC=C(CCCCC(=O)O)[N+](=O)[O-] [18.6.6, 6-nitro-octadec-6-enoic acid]",n.i.
7,"CCCCCCCCCCCC(=CCCCCC(=O)O)[N+](=O)[O-] [18.6.7, 7-nitro-octadec-6-enoic acid]",n.i.
8,"CCCCCCCCCCC=C(CCCCCC(=O)O)[N+](=O)[O-] [18.7.7, 7-nitro-octadec-7-enoic acid]",n.i.
9,"CCCCCCCCCC=C(CCCCCCC(=O)O)[N+](=O)[O-] [18.8.8, 8-nitro-octadec-8-enoic acid]",n.i.
10,"CCCCCCCCCC(=CCCCCCCC(=O)O)[N+](=O)[O-] [18.8.9, 9-nitro-octadec-8-enoic acid]",n.i.
11,"CCCCCCCCC=C(CCCCCCCC(=O)O)[N+](=O)[O-] [18.9.9, 9-nitro-octadec-9-enoic acid]",n.i.
12,"CCCCCCCCC(=CCCCCCCCC(=O)O)[N+](=O)[O-] [18.9.10, 10-nitro-octadec-9-enoic acid]",n.i.
13,"CCCCCCCC=C(CCCCCCCCC(=O)O)[N+](=O)[O-] [18.10.10, 10-nitro-octadec-10-enoic acid]",n.i.
14,"CCCCCCC=C(CCCCCCCCCC(=O)O)[N+](=O)[O-] [18.11.11, 11-nitro-octadec-11-enoic acid]",n.i.
15,"CCCCCCCCCCC=C(CCCCCCCC(=O)O)[N+](=O)[O-] [20.9.9, 9-nitro-eicos-9-enoic acid]",n.i.
16,"CCCCCCCC/C=C\CCCCCCCC(=O)O [OA, oleic acid, reference compound]",not affected and n.i.
